This is an account of results in patent EP3575287A1, “INHIBITORS OF N-ACYLPHOSPHATIDYLETHANOLAMINE PHOSPHOLIPASE D (NAPE-PLD)” (Universiteit Leiden, priority 2018, dated 2019).

SMILES strings stand for the structures.

The target of the assay is T1, human NAPE-PLD (Homo sapiens, UniProt Q6IQ20).
T1 construct: Full length human cDNA NAPE-PLD was obtained from Natsuo Ueda; made in house; host or cells: HEK293T cells, transient transfection (pcDNA3.1); membrane fraction used
T1 sequence (Q6IQ20 whole entry): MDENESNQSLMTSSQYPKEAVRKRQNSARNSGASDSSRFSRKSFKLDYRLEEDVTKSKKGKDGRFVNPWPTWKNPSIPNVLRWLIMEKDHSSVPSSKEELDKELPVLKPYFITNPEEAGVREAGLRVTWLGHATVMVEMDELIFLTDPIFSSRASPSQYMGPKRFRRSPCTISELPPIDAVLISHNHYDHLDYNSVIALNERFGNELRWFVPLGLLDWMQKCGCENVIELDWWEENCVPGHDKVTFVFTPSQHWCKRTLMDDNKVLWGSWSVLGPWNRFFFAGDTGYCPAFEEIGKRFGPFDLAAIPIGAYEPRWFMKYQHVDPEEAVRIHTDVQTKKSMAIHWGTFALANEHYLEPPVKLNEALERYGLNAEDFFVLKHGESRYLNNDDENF
Nature of the assay: In vitro NAPE-PLD activity assay. It is filed as biochemical. The following applies: membrane protein fraction of HEK293T cells overexpressing human NAPE-PLD; substrate PED6 1 µM; 30 minutes preincubation at 37 °C. The protocol: Full length human cDNA NAPE-PLD was obtained from Natsuo Ueda^1 and cloned into mammalian expression vector pcDNA3.1, containing a C-terminal Flag-tag and genes for ampicillin and neomycin resistance. All plasmids were grown in XL-10 Z-competent cells and prepped (Maxi Prep, Qiagen). Sequence analysis for the confirmation of the sequences was performed at the Leiden Genome Technology Centre.
HEK293T were cultured at 37 °C and 7% CO2 in DMEM (Sigma Aldrich, D6546) with glutamax, penicillin (100 µg/ml), streptomycin (100 µg/ml) and 10% New Born Calf Serum iron supplemented (Hyclone SH30072.03). Cells were passaged twice a week to appropriate confluence.
24 hours before transfection 10^7 cells are seeded on a 15 cm dish. Two hours before transfection medium is refreshed, low volume. Transfection is performed with PEI in a ratio of 3:1 with human NAPE-PLD or Mock pcDNA3.1 Neo, 20 µg per dish. Medium is refreshed after 24 hours and cells are harvested after 72 hours.
Cell pellets are re-suspended in lysis buffer: 20 mM Hepes, 2 mM DTT, 0.25 M sucrose, 1 mM MgCl2, 2.5 U/ml benzonase and incubated 30 minutes on ice. The cytosolic fraction (supernatant) is separated from the membranes by ultra-centrifugation (32000 rpm for 30 minutes 100,000g). The pellet is resuspended in storage buffer: 20 mM Hepes, 2 mM DTT (membrane fraction). All samples are stored at -80°C. Enzyme concentrations are determined using a Bradford assay.
The NAPE-PLD activity assay is based on a previously reported method with small alterations.^2 The membrane protein fraction from transient overexpression of human NAPE-PLD in HEK293T cells was diluted to 0.4 mg/ml in assay buffer: 50 mM Tris-HCl (pH 7.5), 0.02% Triton X-100, 150 mM NaCl. The substrate PED6 (Invitrogen) 1 mM stock was consecutively diluted in DMSO (10x) and in assay buffer (10x) to make a 10 µM working solution. […] The assay is performed in a dark Greiner 96 wells plate, end volume 100 µl. The compound or DMSO is incubated with membrane protein lysate (final concentration 0.04 mg/ml) for 30 minutes at 37 °C. […] Mock lysate with DMSO is used for background substraction. IC50 curves are generated used Graphpad Prism v6.
One may read the IC50 as the concentration that gives 50% inhibition. Low readings indicate inhibition by little substance, high ones a need for much substance. `CCN(CC)c1cc(C(=O)NCC2CC2)nc(N(C)CCc2ccccc2)n1` [Example 20, N-(cyclopropylmethyl)-6-(diethylamino)-2-(methyl(phenethyl)amino)pyrimidine-4-carboxamide] had a half-maximal inhibitory concentration (IC50) of 0.501 µM.

The compound `CN(CCc1ccccc1)c1nc(C(=O)NCC2CC2)cc(N2CCCC(F)(F)C2)n1` [Example 86, N-(cyclopropylmethyl)-6-(3,3-difluoropiperidin-1-yl)-2-(methyl(phenethyl)amino)pyrimidine-4-carboxamide] showed an IC50 of 0.389 µM.

`CN(CCc1cccc(Cl)c1)c1nc(C(=O)NCC2CC2)cc(N2CCOCC2)n1` [Example 66, 2-((3-chlorophenethyl)(methyl)amino)-N-(cyclopropylmethyl)-6-morpholinopyrimidine-4-carboxamide] had an IC50 of 2.45 µM.

The compound `CN(CCc1ccccc1Cl)c1nc(C(=O)NCC2CC2)cc(N2CCOCC2)n1` [Example 68, 2-((2-chlorophenethyl)(methyl)amino)-N-(cyclopropylmethyl)-6-morpholinopyrimidine-4-carboxamide] showed an IC50 of 0.977 µM.

`O=C(NCC1CC1)c1cc(N2CCOCC2)nc(N(CCc2ccccc2)CCc2ccccc2)n1` [Example 62, N-(cyclopropylmethyl)-2-(diphenethylamino)-6-morpholinopyrimidine-4-carboxamide]: half-maximal inhibition (IC50) was put at 0.525 µM.

For the compound `CN(CCc1ccccc1)c1nc(C(=O)NCC2CC2)cc(N2CCCC2)n1` [Example 17, N-(cyclopropylmethyl)-2-(methyl(phenethyl)amino)-6-(pyrrolidin-1-yl)pyrimidine-4-carboxamide], inhibition was half-maximal at 0.224 µM (IC50).

Take `CN(Cc1ccccc1)c1nc(C(=O)NCC2CC2)cc(N2CCOCC2)n1` [Example 48, 2-(benzyl(methyl)amino)-N-(cyclopropylmethyl)-6-morpholinopyrimidine-4-carboxamide]: the IC50 was 9.12 µM.

As for `O=C(NCC1CC1)c1cc(N2CC[C@@H](O)C2)nc(N2CCC[C@H](c3ccccc3)C2)n1` [Example 42, N-(cyclopropylmethyl)-6-((R)-3-hydroxypyrrolidin-1-yl)-2-((R)-3-phenylpiperidin-1-yl)pyrimidine-4-carboxamide], the IC50 is 0.324 µM.

In the case of `O=C(NCC1CC1)c1cc(N2CCOCC2)nc(N2CCCCC2Cc2ccccc2)n1` (stereo not shown) [Example 54, 2-(2-benzylpiperidin-1-yl)-N-(cyclopropylmethyl)-6-morpholinopyrimidine-4-carboxamide], the IC50 is 0.741 µM.

In the case of `Cc1ccc(CCN(C)c2nc(C(=O)NCC3CC3)cc(N3CCOCC3)n2)cc1` [Example 69, N-(cyclopropylmethyl)-2-(methyl(4-methylphenethyl)amino)-6-morpholinopyrimidine-4-carboxamide], the IC50 is 1.82 µM.

Compound `COc1ccccc1CCN(C)c1nc(C(=O)NCC2CC2)cc(N2CCOCC2)n1` [Example 83, N-(cyclopropylmethyl)-2-((2-methoxyphenethyl)(methyl)amino)-6-morpholinopyrimidine-4-carboxamide] showed an IC50 of 0.776 µM.

Regarding `CN(CCc1ccccc1)c1nc(Oc2ccccc2)cc(C(=O)NCC2CC2)n1` [Example 87, N-(cyclopropylmethyl)-2-(methyl(phenethyl)amino)-6-phenoxypyrimidine-4-carboxamide], the 50% inhibitory concentration (IC50) was 11.2 µM.

Regarding `CN(CCCc1ccccc1)c1nc(C(=O)NCC2CC2)cc(N2CCOCC2)n1` [Example 58, N-(cyclopropylmethyl)-2-(methyl(3-phenylpropyl)amino)-6-morpholinopyrimidine-4-carboxamide], the IC50 was 3.16 µM.

With `CN(CCc1ccccc1)c1cc(C(=O)NCC2CC2)cc(N2CCOCC2)n1` [Example 75, N-(cyclopropylmethyl)-2-(methyl(phenethyl)amino)-6-morpholino isonicotinamide], the IC50 was 1.45 µM.

Regarding `CN(CCc1cccnc1)c1nc(C(=O)NCC2CC2)cc(N2CCOCC2)n1` [Example 80, N-(cyclopropylmethyl)-2-(methyl(2-(pyridin-3-yl)ethyl)amino)-6-morpholinopyrimidine-4-carboxamide], the IC50 was 10.7 µM. Compared with the last compound, the IC50 is about 7.4-fold higher.

`CN1CCN(c2cc(C(=O)NCC3CC3)nc(N(C)CCc3ccccc3)n2)CC1` [Example 7, N-(cyclopropylmethyl)-2-(methyl(phenethyl)amino)-6-(4-methylpiperazin-1-yl)pyrimidine-4-carboxamide] gave a 50% inhibitory concentration (IC50) of 1.58 µM.

Turning to `C#CCNC(=O)c1cc(N2CC[C@H](O)C2)nc(N2CCN(C(=O)c3ccc(C4(C(F)(F)F)N=N4)cc3)CC2)n1` [Example 45, (S)-6-(3-hydroxypyrrolidin-1-yl)-N-(prop-2-yn-1-yl)-2-(4-(4-(3-(trifluoromethyl)-3H-diazirin-3-yl)benzoyl)piperazin-1-yl)pyrimidine-4-carboxamide], the IC50 is 0.617 µM.

In turn, `CN(CCc1ccccc1)c1nc(C(=O)NCC2CC2)cc(-n2ccnc2)n1` [Example 23, N-(cyclopropylmethyl)-6-(1H-imidazol-1-yl)-2-(methyl(phenethyl)amino)pyrimidine-4-carboxamide] showed an IC50 of 2.24 µM. This IC50 lies about 3.6-fold higher than the previous one.

`CN(CCCCc1ccccc1)c1nc(C(=O)NCC2CC2)cc(N2CCOCC2)n1` [Example 60, N-(cyclopropylmethyl)-2-(methyl(4-phenylbutyl)amino)-6-morpholinopyrimidine-4-carboxamide] had an IC50 of 10 µM.

With `CC(C)CNC(=O)c1cc(N2CCOCC2)nc(N(C)CCc2ccccc2)n1` [Example 6, N-isobutyl-2-(methyl(phenethyl)amino)-6-morpholinopyrimidine-4-carboxamide], the IC50 is 7.08 µM.

With `C#CCNC(=O)c1cc(N2CCOCC2)nc(N(C)CCc2ccccc2)n1` [Example 8, 2-(methyl(phenethyl)amino)-6-morpholino-N-(prop-2-yn-1-yl)pyrimidine-4-carboxamide], the IC50 is 0.912 µM.

As to `CN(CCc1ccccc1)c1nc(C(=O)NCC2CC2)cc(N2CC[C@H](O)C2)n1` [Example 39, (S)-N-(cyclopropylmethyl)-6-(3-hydroxypyrrolidin-1-yl)-2-(methyl(phenethyl)amino)pyrimidine-4-carboxamide], half-maximal inhibition (IC50) was put at 0.234 µM.

As to `O=C(NCC1CC1)c1cc(N2CC[C@@H](O)C2)nc(N2CCC[C@@H](c3ccccc3)C2)n1` [Example 43, N-(cyclopropylmethyl)-6-((R)-3-hydroxypyrrolidin-1-yl)-2-((S)-3-phenylpiperidin-1-yl)pyrimidine-4-carboxamide], the 50% inhibitory concentration (IC50) is 0.11 µM. Compared with the last compound, the IC50 is about 2.1-fold lower.

`CN(CCc1ccccc1)c1nc(C(=O)NCC2CC2)cc(N2CC[C@@H](O)C2)n1` [Example 38, (R)-N-(cyclopropylmethyl)-6-(3-hydroxypyrrolidin-1-yl)-2-(methyl(phenethyl)amino)pyrimidine-4-carboxamide]: the IC50 was 0.302 µM. This IC50 is about 2.7-fold higher than that of the compound before.

`CCN(CCc1ccccc1)c1nc(C(=O)NCC2CC2)cc(N2CCOCC2)n1` [Example 72, N-(cyclopropylmethyl)-2-(ethyl(phenethyl)amino)-6-morpholinopyrimidine-4-carboxamide] showed an IC50 of 0.646 µM.
